From article PMC1315280, “The Flavoring Agent Dihydrocoumarin Reverses Epigenetic Silencing and Inhibits Sirtuin Deacetylases” (PLoS Genetics, 2005)

Target: T1, SIRT1 (Homo sapiens, UniProt Q96EB6)
T1 construct: recombinant SIRT1
T1 sequence (Q96EB6 2-747): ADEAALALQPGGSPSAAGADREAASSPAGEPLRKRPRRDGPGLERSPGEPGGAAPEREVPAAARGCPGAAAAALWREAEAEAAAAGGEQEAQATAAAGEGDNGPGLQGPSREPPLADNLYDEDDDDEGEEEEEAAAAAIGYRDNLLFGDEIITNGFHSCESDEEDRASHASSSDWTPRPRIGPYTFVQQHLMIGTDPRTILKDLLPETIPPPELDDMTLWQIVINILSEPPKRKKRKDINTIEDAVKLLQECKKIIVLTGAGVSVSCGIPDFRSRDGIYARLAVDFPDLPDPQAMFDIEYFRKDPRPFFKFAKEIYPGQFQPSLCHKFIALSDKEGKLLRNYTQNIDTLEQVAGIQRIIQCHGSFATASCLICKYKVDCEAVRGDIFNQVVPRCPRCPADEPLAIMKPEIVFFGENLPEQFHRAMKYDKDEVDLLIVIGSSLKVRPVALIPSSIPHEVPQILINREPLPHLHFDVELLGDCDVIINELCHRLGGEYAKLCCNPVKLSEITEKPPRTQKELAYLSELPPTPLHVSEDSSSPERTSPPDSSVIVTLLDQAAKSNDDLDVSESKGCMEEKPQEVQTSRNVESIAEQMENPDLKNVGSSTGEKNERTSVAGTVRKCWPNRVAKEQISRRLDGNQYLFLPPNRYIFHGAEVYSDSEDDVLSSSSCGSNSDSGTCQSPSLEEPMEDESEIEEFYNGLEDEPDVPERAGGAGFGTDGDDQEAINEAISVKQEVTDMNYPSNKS
Assay: in vitro deacetylase assay with recombinant enzyme and [3H] acetylated histone H4 peptide
Type: biochemical

SMILES: O=C1CCc2ccccc2O1 [DHC, dihydrocoumarin]
- IC50: 208 µM
